Results taken from US9617267B2, “Compounds and methods for kinase modulation, and indications therefor” (Plexxikon Inc., priority 2009, dated 2017).
Like-named read-outs stand apart in the source and are kept apart here.

Columns and labels:
CYP2C9 = CYP2C9 (Homo sapiens (Human), UniProt P11712); experiment: CYP enzyme inhibition, fluorescent substrate (MFC)
Summary of the method: (§1)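 First, 100 mM DMSO stocks are diluted into acetonitrile, then twofold through co-factor mix for 10 points. Next, mixtures are preincubated 10 min at 37 °C.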

CYP3A4(BFC) = CYP3A4(BFC) (Homo sapiens (Human), UniProt P08684); experiment: CYP enzyme inhibition, fluorescent substrate BFC; conditions: read-out: Cyp IC50 3A4(BFC); CYP3A4, substrate BFC
Sequence of CYP3A4(BFC) (P08684 whole entry): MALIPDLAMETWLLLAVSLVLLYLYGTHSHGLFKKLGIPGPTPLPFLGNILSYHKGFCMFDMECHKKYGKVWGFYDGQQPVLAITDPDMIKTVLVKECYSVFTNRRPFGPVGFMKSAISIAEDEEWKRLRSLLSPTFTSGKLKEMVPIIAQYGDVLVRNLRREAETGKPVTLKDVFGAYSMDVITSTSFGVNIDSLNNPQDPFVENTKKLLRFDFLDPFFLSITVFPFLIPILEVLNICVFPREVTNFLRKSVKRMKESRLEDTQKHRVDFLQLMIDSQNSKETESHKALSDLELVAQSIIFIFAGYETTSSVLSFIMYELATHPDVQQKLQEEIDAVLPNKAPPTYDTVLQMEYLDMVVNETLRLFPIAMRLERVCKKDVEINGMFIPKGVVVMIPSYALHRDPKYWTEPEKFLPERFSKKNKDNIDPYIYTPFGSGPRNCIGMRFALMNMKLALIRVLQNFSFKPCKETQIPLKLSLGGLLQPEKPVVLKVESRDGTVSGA
Summary of the method: as §1

CYP1A2 = CYP1A2 (Homo sapiens (Human), UniProt P05177); experiment: CYP enzyme inhibition, fluorescent substrate (CEC)
Sequence of CYP1A2 (P05177 whole entry): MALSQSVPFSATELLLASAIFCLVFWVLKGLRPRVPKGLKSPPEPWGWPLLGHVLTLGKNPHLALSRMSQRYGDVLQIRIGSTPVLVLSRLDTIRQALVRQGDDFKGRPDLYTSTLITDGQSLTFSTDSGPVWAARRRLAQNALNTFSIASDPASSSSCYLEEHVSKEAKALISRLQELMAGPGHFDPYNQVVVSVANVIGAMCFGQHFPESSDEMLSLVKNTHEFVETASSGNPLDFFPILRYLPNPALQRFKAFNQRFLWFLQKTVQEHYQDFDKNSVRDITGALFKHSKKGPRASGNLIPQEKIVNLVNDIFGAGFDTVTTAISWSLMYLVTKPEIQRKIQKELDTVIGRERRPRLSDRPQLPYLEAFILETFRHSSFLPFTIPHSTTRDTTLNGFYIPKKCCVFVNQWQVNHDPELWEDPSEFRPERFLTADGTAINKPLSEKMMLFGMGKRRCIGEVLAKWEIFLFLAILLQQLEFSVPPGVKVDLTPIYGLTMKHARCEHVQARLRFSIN
Summary of the method: (§2)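 IC50 derived from loss of fluorescent metabolite across a 10-point 1:1 dilution series. CYP2D6: 1.5 pmol enzyme, 1.5 μM AMMC, 30 min at 37 °C, 409/530 nm; CYP1A2: 0.5 pmol, 5 μM CEC, 15 min, 409/460 nm. Compounds pre-incubated 10 min in NADPH-regenerating mix.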

CYP2C19 = CYP2C19 (Homo sapiens (Human), UniProt P33261); experiment: CYP enzyme inhibition, fluorescent substrate (CEC); conditions: read-out: Cyp IC50 2C19; CYP2C19, substrate CEC
Sequence of CYP2C19 (P33261 whole entry): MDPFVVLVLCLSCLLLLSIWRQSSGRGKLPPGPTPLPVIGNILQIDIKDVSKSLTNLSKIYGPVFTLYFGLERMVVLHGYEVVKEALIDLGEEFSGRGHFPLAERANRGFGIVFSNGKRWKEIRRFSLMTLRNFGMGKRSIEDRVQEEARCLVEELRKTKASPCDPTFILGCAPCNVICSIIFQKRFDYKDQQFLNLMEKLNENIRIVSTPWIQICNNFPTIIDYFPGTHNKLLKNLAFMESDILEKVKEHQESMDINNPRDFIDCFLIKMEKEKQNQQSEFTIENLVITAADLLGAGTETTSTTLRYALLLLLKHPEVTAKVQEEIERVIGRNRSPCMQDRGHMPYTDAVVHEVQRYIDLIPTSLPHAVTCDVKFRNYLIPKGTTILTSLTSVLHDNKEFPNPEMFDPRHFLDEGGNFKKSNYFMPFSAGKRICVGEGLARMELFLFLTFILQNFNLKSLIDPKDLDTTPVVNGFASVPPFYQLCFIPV
Summary of the method: as §1

[1] = Relative solubility by turbidity threshold concentration in aqueous buffers (pH 1.5, 4.5, 6.8, 7.4); assay type: physicochemical; conditions: for turbidity threshold (L, M, H) 1.4: pH 1.4 [sic] (method: SGF pH 1.5); for turbidity threshold (L, M, H) 4.5: pH 4.5 (SIF); for turbidity threshold (L, M, H) 6.8: pH 6.8 (SIF); for turbidity threshold (L, M, H) 7.4: pH 7.4 (HEPES)
Summary of the method: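 Solubility class (high >250 μM, moderate 31.3–250 μM, low <31.3 μM) comes from the concentration where absorbance reaches a 0.01 threshold, averaged across 490/535/650 nm. Samples were compound dilutions from DMSO stock, 1 μL into 99 μL buffer at pH 1.5, 4.5, 6.8 or 7.4.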

CYP2D6 = CYP2D6 (Homo sapiens (Human), UniProt P10635); experiment: CYP enzyme inhibition, fluorescent substrate (AMMC); assay type: in vitro ADME; conditions: read-out: Cyp IC50 2D6
Sequence of CYP2D6 (P10635 whole entry): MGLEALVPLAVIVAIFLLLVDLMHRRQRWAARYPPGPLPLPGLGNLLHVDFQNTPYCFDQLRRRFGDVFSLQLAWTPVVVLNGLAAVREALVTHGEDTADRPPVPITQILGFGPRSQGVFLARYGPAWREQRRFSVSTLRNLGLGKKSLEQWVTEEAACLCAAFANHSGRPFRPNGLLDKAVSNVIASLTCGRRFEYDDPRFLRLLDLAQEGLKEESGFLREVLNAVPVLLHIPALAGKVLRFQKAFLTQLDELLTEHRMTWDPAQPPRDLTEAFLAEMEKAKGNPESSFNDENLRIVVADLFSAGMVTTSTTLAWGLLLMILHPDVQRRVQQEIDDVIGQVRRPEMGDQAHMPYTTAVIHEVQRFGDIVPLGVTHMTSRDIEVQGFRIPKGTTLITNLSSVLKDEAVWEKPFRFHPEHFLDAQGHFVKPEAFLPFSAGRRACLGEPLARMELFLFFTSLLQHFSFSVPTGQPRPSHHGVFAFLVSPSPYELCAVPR
Summary of the method: as §2

CYP3A4(BQ) = CYP3A4(BQ) (Homo sapiens (Human), UniProt P08684); experiment: CYP enzyme inhibition, fluorescent substrate BQ; conditions: read-out: Cyp IC50 3A4(BQ); CYP3A4, substrate BQ
Sequence of CYP3A4(BQ) (P08684 whole entry): as the sequence (P08684 whole entry) above
Experimental: CYP (Cytochrome P450) enzymes are the major drug metabolizing enzymes present in the liver. The inhibition of CYP enzyme activity (IC50) for each of CYP1A2, CYP2C19, CYP2C9, CYP2D6, CYP3A4(BFC) and CYP3A4(BQ) is determined for compounds, where inhibition of metabolism of a known substrate leads to a decrease in the fluorescence of the metabolized product. The fluorescence of the product is monitored as a function of compound concentration.
Compounds are dissolved in dimethyl sulfoxide to a concentration of 100 mM. These are diluted 1 μL into 82 μL of acetonitrile. […] These are then serially diluted 1:1 (160 μL to 160 μL co-factor mix) for a total of 10 points. A 10 μL aliquot of this final mixture is dispensed into 384 well assay plates and incubated for 10 minutes at 37° C. […] Assay plates are incubated at 37° C. […] The signal versus compound concentration is used to determine the IC50. The enzymes and substrates for this assay are obtained from BD Biosciences.

[2] = read-out: Cyp IC50 2C9, CYP2C9, substrate MFC

Sequence of CYP2C9 (P11712 whole entry): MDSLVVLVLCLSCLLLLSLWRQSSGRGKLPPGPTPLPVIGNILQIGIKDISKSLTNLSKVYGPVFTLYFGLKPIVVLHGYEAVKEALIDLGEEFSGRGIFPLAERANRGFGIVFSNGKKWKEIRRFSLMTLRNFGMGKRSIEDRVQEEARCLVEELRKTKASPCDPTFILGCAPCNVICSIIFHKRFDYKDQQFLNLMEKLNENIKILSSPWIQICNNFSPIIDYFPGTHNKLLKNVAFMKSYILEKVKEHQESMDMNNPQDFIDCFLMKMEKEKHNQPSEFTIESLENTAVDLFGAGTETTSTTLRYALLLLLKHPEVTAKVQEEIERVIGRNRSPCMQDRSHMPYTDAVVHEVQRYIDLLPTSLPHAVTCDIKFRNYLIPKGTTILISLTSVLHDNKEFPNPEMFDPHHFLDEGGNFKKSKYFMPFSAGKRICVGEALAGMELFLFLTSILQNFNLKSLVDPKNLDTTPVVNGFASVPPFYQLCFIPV

Row | SMILES | IC50 (CYP2C9; [2]) | IC50 (CYP3A4(BFC)) | IC50 (CYP1A2; human, 15 min) | IC50 (CYP2C19) | turbidity threshold (L, M, H) 1.4 [1] | turbidity threshold (L, M, H) 4.5 [1] | turbidity threshold (L, M, H) 6.8 [1] | turbidity threshold (L, M, H) 7.4 [1] | IC50 (CYP2D6) | IC50 (CYP3A4(BQ)) | IC50 (CYP2C9) | IC50 (CYP1A2; read-out: Cyp IC50 1A2, CYP1A2, substrate CEC)
1 | O=C(c1c(F)ccc(NS(=O)(=O)c2cc(F)ccc2F)c1F)c1c[nH]c2ncnc(NC3CC3)c12 [P-1104, N-[3-(4-Cyclopropylamino-7H-pyrrolo[2,3-d]pyrimidine-5-carbonyl)-2,4-difluoro-phenyl]-2,5-difluoro-benzenesulfonamide] | > 10 µM | > 10 µM | > 10 µM | > 10 µM | H (high solubility if the threshold concentration is >250 μm) | M (moderate solubility if the threshold concentration is 31.3 μM to 250 μM) | M (moderate solubility if the threshold concentration is 31.3 μM to 250 μM) | M (moderate solubility if the threshold concentration is 31.3 μM to 250 μM) | > 10 µM | > 10 µM | – | –
2 | CC(C)Nc1ncnc2[nH]cc(C(=O)c3c(F)ccc(NS(=O)(=O)c4cc(F)ccc4F)c3F)c12 [P-1111, N-[2,4-Difluoro-3-(4-isopropylamino-7H-pyrrolo[2,3-d]pyrimidine-5-carbonyl)-phenyl]-2,5-difluoro-benzenesulfonamide] | – | > 10 µM | > 10 µM | > 10 µM | – | – | – | – | > 10 µM | > 10 µM | 5 to 10 µM | –
3 | CCCS(=O)(=O)Nc1ccc(F)c(C(=O)c2c[nH]c3ncnc(Nc4ccc(OC)cc4F)c23)c1F [P-1101, Propane-1-sulfonic acid {2,4-difluoro-3-[4-(2-fluoro-4-methoxy-phenylamino)-7H-pyrrolo[2,3-d]pyrimidine-5-carbonyl]-phenyl}-amide] | > 10 µM | > 10 µM | > 10 µM | > 10 µM | L (low solubility if the threshold concentration is <31.3 μM) | L (low solubility if the threshold concentration is <31.3 μM) | L (low solubility if the threshold concentration is <31.3 μM) | L (low solubility if the threshold concentration is <31.3 μM) | > 10 µM | > 10 µM | – | –
4 | CCCS(=O)(=O)Nc1ccc(F)c(C(=O)c2c[nH]c3ncnc(NCC4CC4)c23)c1F [P-1079, Propane-1-sulfonic acid {3-[4-(cyclopropylmethyl-amino)-7H-pyrrolo[2,3-d]pyrimidine-5-carbonyl]-2,4-difluoro-phenyl}-amide] | > 10 µM | > 10 µM | > 10 µM | > 10 µM | M (moderate solubility if the threshold concentration is 31.3 μM to 250 μM) | L (low solubility if the threshold concentration is <31.3 μM) | L (low solubility if the threshold concentration is <31.3 μM) | L (low solubility if the threshold concentration is <31.3 μM) | > 10 µM | > 10 µM | – | –
5 | COc1cccc(Nc2ncnc3[nH]cc(C(=O)c4c(F)ccc(NS(=O)(=O)c5ccccc5F)c4F)c23)c1 [P-1149, N-{2,4-Difluoro-3-[4-(3-methoxy-phenylamino)-7H-pyrrolo[2,3-d]pyrimidine-5-carbonyl]-phenyl}-2-fluoro-benzenesulfonamide] | > 10 µM | > 10 µM | > 10 µM | > 10 µM | – | – | – | – | > 10 µM | > 10 µM | – | –
6 | CCCS(=O)(=O)Nc1ccc(F)c(C(=O)c2c[nH]c3ncnc(Nc4cn(C)nc4C)c23)c1F [P-1100, Propane-1-sulfonic acid {3-[4-(1,3-dimethyl-1H-pyrazol-4-ylamino)-7H-pyrrolo[2,3-d]pyrimidine-5-carbonyl]-2,4-difluoro-phenyl}-amide] | > 10 µM | > 10 µM | – | > 10 µM | M (moderate solubility if the threshold concentration is 31.3 μM to 250 μM) | M (moderate solubility if the threshold concentration is 31.3 μM to 250 μM) | L (low solubility if the threshold concentration is <31.3 μM) | L (low solubility if the threshold concentration is <31.3 μM) | > 10 µM | > 10 µM | – | > 10 µM
7 | O=C(c1c(F)ccc(NS(=O)(=O)c2ccccc2F)c1F)c1c[nH]c2ncnc(NC3CC3)c12 [P-1103, N-[3-(4-Cyclopropylamino-7H-pyrrolo[2,3-d]pyrimidine-5-carbonyl)-2,4-difluoro-phenyl]-2-fluoro-benzenesulfonamide] | > 10 µM | > 10 µM | > 10 µM | > 10 µM | M (moderate solubility if the threshold concentration is 31.3 μM to 250 μM) | L (low solubility if the threshold concentration is <31.3 μM) | L (low solubility if the threshold concentration is <31.3 μM) | M (moderate solubility if the threshold concentration is 31.3 μM to 250 μM) | > 10 µM | > 10 µM | – | –
8 | CCn1cc(Nc2ncnc3[nH]cc(C(=O)c4c(F)ccc(NS(=O)(=O)c5ccccc5F)c4F)c23)cn1 [P-1153, N-{3-[4-(1-Ethyl-1H-pyrazol-4-ylamino)-7H-pyrrolo[2,3-d]pyrimidine-5-carbonyl]-2,4-difluoro-phenyl}-2-fluoro-benzenesulfonamide] | > 10 µM | > 10 µM | > 10 µM | > 10 µM | – | – | – | – | > 10 µM | > 10 µM | – | –
9 | COCCNc1ncnc2[nH]cc(C(=O)c3c(F)ccc(NS(=O)(=O)c4ccccc4F)c3F)c12 [P-1150, N-{2,4-Difluoro-3-[4-(2-methoxy-ethylamino)-7H-pyrrolo[2,3-d]pyrimidine-5-carbonyl]-phenyl}-2-fluoro-benzenesulfonamide] | > 10 µM | > 10 µM | > 10 µM | > 10 µM | – | – | – | – | > 10 µM | > 10 µM | – | –
10 | CCCS(=O)(=O)Nc1ccc(F)c(C(=O)c2c[nH]c3ncnc(Nc4ccc(OC)nc4)c23)c1F [P-1090, Propane-1-sulfonic acid {2,4-difluoro-3-[4-(6-methoxy-pyridin-3-ylamino)-7H-pyrrolo[2,3-d]pyrimidine-5-carbonyl]-phenyl}-amide] | > 10 µM | > 10 µM | > 10 µM | > 10 µM | – | – | – | – | > 10 µM | > 10 µM | – | –
11 | COc1cccc(Nc2ncnc3[nH]cc(C(=O)c4c(F)ccc(NS(=O)(=O)c5cc(F)ccc5F)c4F)c23)c1 [P-1139, N-{2,4-Difluoro-3-[4-(3-methoxy-phenylamino)-7H-pyrrolo[2,3-d]pyrimidine-5-carbonyl]-phenyl}-2,5-difluoro-benzenesulfonamide] | > 10 µM | > 10 µM | > 10 µM | > 10 µM | – | – | – | – | > 10 µM | > 10 µM | – | –
12 | CCCS(=O)(=O)Nc1ccc(F)c(C(=O)c2c[nH]c3ncnc(NCc4ccccc4)c23)c1F [P-1074, Propane-1-sulfonic acid [3-(4-benzylamino-7H-pyrrolo[2,3-d]pyrimidine-5-carbonyl)-2,4-difluoro-phenyl]-amide] | > 10 µM | > 10 µM | > 10 µM | > 10 µM | – | – | – | – | > 10 µM | > 10 µM | – | –
13 | O=C(c1c(F)ccc(NS(=O)(=O)c2cc(F)ccc2F)c1F)c1c[nH]c2ncnc(NCC3CC3)c12 [P-1137, N-{3-[4-(Cyclopropylmethyl-amino)-7H-pyrrolo[2,3-d]pyrimidine-5-carbonyl]-2,4-difluoro-phenyl}-2,5-difluoro-benzenesulfonamide] | > 10 µM | > 10 µM | > 10 µM | > 10 µM | – | – | – | – | > 10 µM | > 10 µM | – | –
